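The concentration for 50% growth inhibition is given as GI50. TGI is the concentration that stops growth completely.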
Key:
Assay in all cases: NCI tumour cell line growth inhibition, 384-well format; in the data active means GI50 below about 0.43 µM; inactive means the rest
NCI-H460 NSCLC = system: NCI-H460 NSCLC
SNB-19 CNS = system: SNB-19 CNS
K-562 leukemia = system: K-562 leukemia
NCI/ADR-RES ovarian = system: NCI/ADR-RES ovarian
MOLT-4 leukemia = system: MOLT-4 leukemia
HOP-62 NSCLC = system: HOP-62 NSCLC
T-47D breast = system: T-47D breast
SK-OV-3 ovarian = system: SK-OV-3 ovarian
MCF7 breast = system: MCF7 breast
RXF 393 renal = system: RXF 393 renal
SF-295 CNS = system: SF-295 CNS
ACHN renal = system: ACHN renal
MDA-MB-435 melanoma = system: MDA-MB-435 melanoma
BT-549 breast = system: BT-549 breast
CCRF-CEM leukemia = system: CCRF-CEM leukemia
UACC-62 melanoma = system: UACC-62 melanoma
COLO 205 colon = system: COLO 205 colon
SK-MEL-5 melanoma = system: SK-MEL-5 melanoma
786-0 renal = system: 786-0 renal
HS 578T breast = system: HS 578T breast
SK-MEL-28 melanoma = system: SK-MEL-28 melanoma
A549 NSCLC = system: A549 NSCLC
TK-10 renal = system: TK-10 renal
SNB-75 CNS = system: SNB-75 CNS
LOX IMVI melanoma = system: LOX IMVI melanoma
SN12C renal = system: SN12C renal
MALME-3M melanoma = system: MALME-3M melanoma
U251 glioblastoma = system: U251 glioblastoma
NCI-H322M lung = system: NCI-H322M lung
OVCAR-8 ovarian = system: OVCAR-8 ovarian
HCC-2998 colon = system: HCC-2998 colon
HCT-15 colon = system: HCT-15 colon
KM12 colon = system: KM12 colon
DU-145 prostate = system: DU-145 prostate
OVCAR-5 ovarian = system: OVCAR-5 ovarian
CAKI-1 renal = system: CAKI-1 renal
SF-539 CNS = system: SF-539 CNS
EKVX NSCLC = system: EKVX NSCLC
HCT-116 colon = system: HCT-116 colon
NCI-H23 lung = system: NCI-H23 lung
HOP-92 NSCLC = system: HOP-92 NSCLC
MDA-MB-468 breast = system: MDA-MB-468 breast
A498 renal = system: A498 renal
UACC-257 melanoma = system: UACC-257 melanoma
IGROV1 ovarian = system: IGROV1 ovarian
SW-620 colon = system: SW-620 colon
NCI-H226 lung = system: NCI-H226 lung
PC-3 prostate = system: PC-3 prostate
OVCAR-3 ovarian = system: OVCAR-3 ovarian
HT29 colon = system: HT29 colon
M14 melanoma = system: M14 melanoma
SF-268 CNS = system: SF-268 CNS
OVCAR-4 ovarian = system: OVCAR-4 ovarian
NCI-H522 lung = system: NCI-H522 lung
HL-60(TB) leukemia = system: HL-60(TB) leukemia
MDA-MB-231 breast = system: MDA-MB-231 breast
RPMI-8226 leukemia = system: RPMI-8226 leukemia
UO-31 renal = system: UO-31 renal

O=C(Oc1ccc([N+](=O)[O-])cc1)N1CCC(C(O)(c2ccc3c(c2)OCO3)c2ccc3c(c2)OCO3)CC1
> 100 µM: TGI (NCI-H460 NSCLC) | TGI (SNB-19 CNS) | TGI (K-562 leukemia) | TGI (NCI/ADR-RES ovarian) | TGI (MOLT-4 leukemia) | TGI (HOP-62 NSCLC) | TGI (T-47D breast) | TGI (SK-OV-3 ovarian) | TGI (MCF7 breast) | TGI (RXF 393 renal) | TGI (SF-295 CNS) | TGI (ACHN renal) | TGI (MDA-MB-435 melanoma) | TGI (BT-549 breast) | TGI (CCRF-CEM leukemia) | TGI (UACC-62 melanoma) | TGI (COLO 205 colon) | TGI (SK-MEL-5 melanoma) | TGI (786-0 renal) | TGI (HS 578T breast) | TGI (SK-MEL-28 melanoma) | TGI (A549 NSCLC) | TGI (TK-10 renal) | TGI (SNB-75 CNS) | TGI (LOX IMVI melanoma) | TGI (SN12C renal) | TGI (MALME-3M melanoma) | TGI (U251 glioblastoma) | TGI (NCI-H322M lung) | TGI (OVCAR-8 ovarian) | TGI (HCC-2998 colon) | TGI (HCT-15 colon) | TGI (KM12 colon) | TGI (DU-145 prostate) | TGI (OVCAR-5 ovarian) | TGI (CAKI-1 renal) | TGI (SF-539 CNS) | TGI (EKVX NSCLC) | TGI (HCT-116 colon) | TGI (NCI-H23 lung) | TGI (HOP-92 NSCLC) | TGI (MDA-MB-468 breast) | TGI (A498 renal) | TGI (UACC-257 melanoma) | TGI (IGROV1 ovarian) | TGI (SW-620 colon) | TGI (NCI-H226 lung) | TGI (PC-3 prostate) | TGI (OVCAR-3 ovarian) | TGI (HT29 colon) | TGI (M14 melanoma) | TGI (SF-268 CNS) | TGI (OVCAR-4 ovarian) | TGI (NCI-H522 lung) | TGI (HL-60(TB) leukemia) | TGI (MDA-MB-231 breast) | TGI (RPMI-8226 leukemia) | TGI (UO-31 renal)
inactive: GI50 (NCI-H460 NSCLC) > 100 µM | GI50 (SNB-19 CNS) > 100 µM | GI50 (K-562 leukemia) > 100 µM | GI50 (NCI/ADR-RES ovarian) > 100 µM | GI50 (MOLT-4 leukemia) > 100 µM | GI50 (HOP-62 NSCLC) > 100 µM | GI50 (T-47D breast) 2.93 µM | GI50 (SK-OV-3 ovarian) > 100 µM | GI50 (MCF7 breast) > 100 µM | GI50 (RXF 393 renal) 98.7 µM | GI50 (SF-295 CNS) > 100 µM | GI50 (ACHN renal) > 100 µM | GI50 (MDA-MB-435 melanoma) > 100 µM | GI50 (BT-549 breast) 53.1 µM | GI50 (CCRF-CEM leukemia) > 100 µM | GI50 (UACC-62 melanoma) > 100 µM | GI50 (COLO 205 colon) > 100 µM | GI50 (SK-MEL-5 melanoma) > 100 µM | GI50 ([…]-0 renal) > 100 µM | GI50 (HS 578T breast) 24.5 µM | GI50 (SK-MEL-28 melanoma) > 100 µM | GI50 (A549 NSCLC) > 100 µM | GI50 (TK-10 renal) > 100 µM | GI50 (SNB-75 CNS) 24.6 µM | GI50 (LOX IMVI melanoma) > 100 µM | GI50 (SN12C renal) > 100 µM | GI50 (MALME-3M melanoma) > 100 µM | GI50 (U251 glioblastoma) > 100 µM | GI50 (NCI-H322M lung) > 100 µM | GI50 (OVCAR-8 ovarian) > 100 µM | GI50 (HCC-2998 colon) 18.2 µM | GI50 (HCT-15 colon) > 100 µM | GI50 (KM12 colon) > 100 µM | GI50 (DU-145 prostate) > 100 µM | GI50 (OVCAR-5 ovarian) > 100 µM | GI50 (CAKI-1 renal) > 100 µM | GI50 (SF-539 CNS) > 100 µM | GI50 (EKVX NSCLC) > 100 µM | GI50 (HCT-116 colon) > 100 µM | GI50 (NCI-H23 lung) > 100 µM | GI50 (HOP-92 NSCLC) 44.5 µM | GI50 (MDA-MB-468 breast) 32.6 µM | GI50 (A498 renal) > 100 µM | GI50 (UACC-257 melanoma) > 100 µM | GI50 (IGROV1 ovarian) > 100 µM | GI50 (SW-620 colon) > 100 µM | GI50 (NCI-H226 lung) > 100 µM | GI50 (PC-3 prostate) > 100 µM | GI50 (OVCAR-3 ovarian) > 100 µM | GI50 (HT29 colon) > 100 µM | GI50 (M14 melanoma) > 100 µM | GI50 (SF-268 CNS) 11.1 µM | GI50 (OVCAR-4 ovarian) > 100 µM | GI50 (NCI-H522 lung) > 100 µM | GI50 (HL-60(TB) leukemia) > 100 µM | GI50 (MDA-MB-231 breast) > 100 µM | GI50 (RPMI-8226 leukemia) > 100 µM | GI50 (UO-31 renal) > 100 µM

— PubChem BioAssay (NCI)
